These results are taken from the supplement of paper PMC11208160.
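Also: IS621 bridge recombinase in Escherichia coli cells against a fixed T5 target plasmid.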

This data set is described as follows: recombinant UMI read abundance after kanamycin selection (control-corrected) (log10(CPM+1)); higher = more efficient recombination; extreme values may be limits of the assay; sequences stand for … in AGTGCAGAGAAAATCGGCCAGTTTTCTCTGCCTGCAGTCCGCATGCCGTGGGACCCCTTGGGTTCTAACCTGTTGCCTAGATTTATGCAGCGGACTGCCTTTCTCCCAAAGTGATAAACCGG…AGGTTGGTTTCACT; site = the 11-nt donor. In a few lines:
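In a pooled Escherichia coli screen for the IS621 bridge recombinase, donor and donor-binding-loop pairs were each placed with a 12-nt UMI on a plasmid bearing a promoterless kanamycin gene. This library was co-electroporated with a target plasmid encoding a fixed target and T7-inducible recombinase, and cells were plated either on IPTG (0.07 mM) plus kanamycin or without selection, in two replicates each. Recombinant UMIs were PCR-amplified across the donor–target junction and sequenced, and counts were converted to CPM, averaged over replicates, scaled by control-derived factors and reported as log10(CPM+1).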
“CACTTGGCATGGACCGGTTTTCCCGGTAATCCGTATTTGGA (site CCCTTGGCTTC)”: the “recombinant UMI read abundance (log10)” value is 0.304.
On to “CACTTGGCATGGACCGGTTTTCCCGGTAATCCGTATTTGGA (site CGCTTGGCTTC)”, for which the “recombinant UMI read abundance (log10)” value worked out at 0.439.
Then “CACTTGGCATGGACCGGTTTTCCCGGTAATCCGTATTTGGA (site CTCTTGGCTTC)”, with 0.0309.
The result for “CACTTGGCATGGACCGGTTTTCCCGGTAATCCGTATTTGGA (site GACTTGGCTTC)” reads 0.112; that for “CACTTGGCATGGACCGGTTTTCCCGGTAATCCGTATTTGGA (site TACTTGGCTTC)”, 0.275.
As for “CACTTGGCATGGACCGGTTTTCCCGGTAATCCGTATTTGGC (site CACTTGGCTAC)”, the “recombinant UMI read abundance (log10)” value was determined as 0.012.
Then “CACTTGGCATGGACCGGTTTTCCCGGTAATCCGTATTTGGC (site CACTTGGCTCC)”, with 0.0109; and “CACTTGGCATGGACCGGTTTTCCCGGTAATCCGTATTTGGC (site CACTTGGCTGC)”, with 1.64; and “CACTTGGCATGGACCGGTTTTCCCGGTAATCCGTATTTGGC (site CACTTGGCTTC)”, with 0.166.
The result for “CACTTGGCATGGACCGGTTTTCCCGGTAATCCGTATTTGGG (site CACTTGGCTAC)” reads 0.0307.
On to “CACTTGGCATGGACCGGTTTTCCCGGTAATCCGTATTTGGG (site CACTTGGCTCC)”, for which the “recombinant UMI read abundance (log10)” value was determined as 0.0801.
Then “CACTTGGCATGGACCGGTTTTCCCGGTAATCCGTATTTGGG (site CACTTGGCTGC)”, with 0; and “CACTTGGCATGGACCGGTTTTCCCGGTAATCCGTATTTGGG (site CACTTGGCTTC)”, with 0.0398; and “CACTTGTCATGGACCGGTTTTCCCGGTAATCCGTATTTGGA (site CACTTGACTTC)”, with 0.0147.
Turning to “CACTTGTCATGGACCGGTTTTCCCGGTAATCCGTATTTGGA (site CACTTGCCTTC)”, the “recombinant UMI read abundance (log10)” value is 0.0181.
Take “CACTTGTCATGGACCGGTTTTCCCGGTAATCCGTATTTGGA (site CACTTGGCTTC)”: the “recombinant UMI read abundance (log10)” value amounted to 0.00318.
The result for “CACTTGTCATGGACCGGTTTTCCCGGTAATCCGTATTTGGA (site CACTTGTCTTC)” reads 1.84; that for “CAGAAGTCATGGACCGGTTTTCCCGGTAATCCGTATTTGAC (site CAGAAGTCTGT)”, 1.46.
The result for “CAGAATACATGGACCGGTTTTCCCGGTAATCCGTATTTGCA (site AAGAATACTTG)” reads 0.616; that for “CAGAATACATGGACCGGTTTTCCCGGTAATCCGTATTTGCA (site CAGAATACTTG)”, 2.15; that for “CAGAATACATGGACCGGTTTTCCCGGTAATCCGTATTTGCA (site GAGAATACTTG)”, 0.
Then “CAGAATACATGGACCGGTTTTCCCGGTAATCCGTATTTGCA (site TAGAATACTTG)”, with 0.38.
On to “CAGAATCCATGGACCGGTTTTCCCGGTAATCCGTATTTGTC (site CAGAATCCTGA)”, for which the “recombinant UMI read abundance (log10)” value turned out to be 2.5.
For “CAGAATCCATGGACCGGTTTTCCCGGTAATCCGTATTTGTC (site CGGAATCCTAA)”, the “recombinant UMI read abundance (log10)” value turned out to be 0.
“CAGACATCATGGACCGGTTTTCCCGGTAATCCGTATTTGAG (site CAGACATCTCT)”: the “recombinant UMI read abundance (log10)” value came out at 3.06.
Take “CAGACCGCATGGACCGGTTTTCCCGGTAATCCGTATTTGTC (site CAGACCGCTGA)”: the “recombinant UMI read abundance (log10)” value was found to be 3.23.
Regarding “CAGATGGCATGGACCGGTTTTCCCGGTAATCCGTATTTGTA (site CAGATGGCTTA)”, the “recombinant UMI read abundance (log10)” value was 2.68.
Turning to “CAGCACGCATGGACCGGTTTTCCCGGTAATCCGTATTTGGG (site AAGCACGCTCC)”, the “recombinant UMI read abundance (log10)” value amounted to 0.012.
The result for “CAGCACGCATGGACCGGTTTTCCCGGTAATCCGTATTTGGG (site CAGCACGCTCC)” reads 0.512; that for “CAGCACGCATGGACCGGTTTTCCCGGTAATCCGTATTTGGG (site GAGCACGCTCC)”, 0.0111; that for “CAGCACGCATGGACCGGTTTTCCCGGTAATCCGTATTTGGG (site TAGCACGCTCC)”, 0.0838.
Consider “CAGCAGCCATGGACCGGTTTTCCCGGTAATCCGTATTTGGT (site CAGCAGCCTAC)”, for which the “recombinant UMI read abundance (log10)” value was 0.642.
The result for “CAGCATGCATGGACCGGTTTTCCCGGTAATCCGTATTTGAA (site CAGCATGCTTT)” reads 2.7; that for “CAGCCAACATGGACCGGTTTTCCCGGTAATCCGTATTTGCA (site CAGCCAACTTG)”, 2.34; that for “CAGCGGTCATGGACCGGTTTTCCCGGTAATCCGTATTTGCC (site CAGCGGTCTGG)”, 2.76.
Turning to “CAGCTCGCATGGACCGGTTTTCCCGGTAATCCGTATTTGTG (site CAGCTCGCTCA)”, the “recombinant UMI read abundance (log10)” value amounted to 0.0273.
Consider “CAGCTGGCATGGACCGGTTTTCCCGGTAATCCGTATTTGAT (site CAGCTGGCTAT)”, for which the “recombinant UMI read abundance (log10)” value was determined as 1.63.
The result for “CAGGCATCATGGACCGGTTTTCCCGGTAATCCGTATTTGCA (site CAGGCATCTTG)” reads 2.53; that for “CAGGCCGCATGGACCGGTTTTCCCGGTAATCCGTATTTGAG (site CAGGCCGCTCT)”, 0.33.
The result for “CAGGGGTCATGGACCGGTTTTCCCGGTAATCCGTATTTGAA (site CAGGGGTCTTT)” reads 3.02; that for “CAGGGTCCATGGACCGGTTTTCCCGGTAATCCGTATTTGGA (site CAGGGTCCTTC)”, 0.288.
The result for “CAGGTCACATGGACCGGTTTTCCCGGTAATCCGTATTTGGG (site CAAGTCACTCC)” reads 0.0193.
As for “CAGGTCACATGGACCGGTTTTCCCGGTAATCCGTATTTGGG (site CACGTCACTCC)”, the “recombinant UMI read abundance (log10)” value is 0.00865.
The result for “CAGGTCACATGGACCGGTTTTCCCGGTAATCCGTATTTGGG (site CAGGTCACTCC)” reads 0.0396; that for “CAGGTCACATGGACCGGTTTTCCCGGTAATCCGTATTTGGG (site CATGTCACTCC)”, 0.0163.
Take “CAGGTCACATGGACCGGTTTTCCCGGTAATCCGTATTTGTC (site CAGGTCACTGA)”: the “recombinant UMI read abundance (log10)” value was 2.7.
With “CAGGTGACATGGACCGGTTTTCCCGGTAATCCGTATTTGTA (site CAGGTGACTTA)”, the “recombinant UMI read abundance (log10)” value amounted to 1.83.
On to “CAGGTGGCATGGACCGGTTTTCCCGGTAATCCGTATTTGCG (site CAGGTGGCTCG)”, for which the “recombinant UMI read abundance (log10)” value amounted to 1.88.
Then “CAGTAGACATGGACCGGTTTTCCCGGTAATCCGTATTTGGG (site CAGTAGACTCC)”, with 0.653; and “CAGTAGACATGGACCGGTTTTCCCGGTAATCCGTATTTGGG (site CAGTCGACTCC)”, with 0.00641.
As for “CAGTAGACATGGACCGGTTTTCCCGGTAATCCGTATTTGGG (site CAGTGGACTCC)”, the “recombinant UMI read abundance (log10)” value was determined as 0.00992.
On to “CAGTAGACATGGACCGGTTTTCCCGGTAATCCGTATTTGGG (site CAGTTGACTCC)”, for which the “recombinant UMI read abundance (log10)” value was found to be 0.033.
